No end group written: not given here.

One data set relates to Ku80. The following applies: yeast two-hybrid experiments or EMSA; cited from earlier work. (Mobility shift assays separate free from complexed probe on a gel.)
For data set [1], the target named is KuFL (full length Ku70/Ku80) (Homo sapiens, UniProt P12956+P13010). Description: ITC, ligand into KuFL. It is filed as binding. The following applies: 25°C, pH 8.0, KuFL in cell, line 9 deduced from the first injection point. (ITC needs no label: the signal is the heat of the interaction.)
The subject of data set [2] is DSBs sites in XLF-defective BuS cells. Description: Live cell recruitment of CFP-XLF to laser sites, BuS cells. It is filed as cell-based, human. The following applies: for Recruitment to laser-irradiated sites, full-length XLF: CFP-XLF in BuS cells, n=20 cells, WT vs L297W p=0.0093, WT vs L297E p<0.0001.
For another data set, the system named is Ku. To be noted: fluorescence polarization with labelled peptides; cited from earlier work. A general note: Polarisation of emitted light reports the rotation of a fluorescent probe.
Data set [3] concerns the target Ku70cc;Ku80cc;pXLF (long X-KBM peptide) (human?;human?;human?, UniProt P12956;P13010;Q9H9Q4 1-544;1-551;281-299, ||). Description: X-ray crystallography 2.8 A.
Data set [4] has as its target Ku70cc;Ku80cc;pAPLF (A-KBM peptide) (human?;human?;human?, UniProt P12956;P13010;Q8IW19 1-544;1-551;174-191, ||). The experiment in a line: X-ray crystallography 3.0 A.
For data set [5], the target named is Ku70cc;Ku80cc;pXLFs (short X-KBM peptide) (human?;human?;human?, UniProt P12956;P13010;Q9H9Q4 1-544;1-551;287-299, ||). The experiment in a line: X-ray crystallography 2.9 A.
For data set [6], the target named is T1, Ku70 full length;Ku80 full length (human?;human?, UniProt P12956;P13010 1-609;1-732, |). The experiment in a line: switchSENSE.
Data set [7] has as its target Ku70 full length;Ku80 full length;XLF full length (human?;human?;human?, UniProt P12956;P13010;Q9H9Q4 1-609;1-732;1-299, ||). The experiment in a line: EMSA.
For data set [8], the target named is T1, Ku70 full length;Ku80 full length. The experiment in a line: ITC.

T1 sequence (P12956 whole entry, chain 1 of 2): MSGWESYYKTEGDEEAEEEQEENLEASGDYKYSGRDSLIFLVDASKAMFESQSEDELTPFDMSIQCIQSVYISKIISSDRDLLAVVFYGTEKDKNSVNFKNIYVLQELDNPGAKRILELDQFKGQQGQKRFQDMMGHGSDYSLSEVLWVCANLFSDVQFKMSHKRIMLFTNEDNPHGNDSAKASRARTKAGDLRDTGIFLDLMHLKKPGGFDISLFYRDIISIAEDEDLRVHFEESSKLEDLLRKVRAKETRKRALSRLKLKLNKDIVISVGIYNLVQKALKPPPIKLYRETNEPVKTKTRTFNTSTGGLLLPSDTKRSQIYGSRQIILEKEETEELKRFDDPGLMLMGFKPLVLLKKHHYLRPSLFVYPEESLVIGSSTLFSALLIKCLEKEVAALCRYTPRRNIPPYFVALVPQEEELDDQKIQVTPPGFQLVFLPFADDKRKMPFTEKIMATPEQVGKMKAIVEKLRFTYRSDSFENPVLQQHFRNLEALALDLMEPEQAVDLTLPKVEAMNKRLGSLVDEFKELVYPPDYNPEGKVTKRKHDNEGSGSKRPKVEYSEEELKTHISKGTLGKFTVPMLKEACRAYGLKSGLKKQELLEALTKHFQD
T1 sequence (P13010 whole entry, chain 2 of 2): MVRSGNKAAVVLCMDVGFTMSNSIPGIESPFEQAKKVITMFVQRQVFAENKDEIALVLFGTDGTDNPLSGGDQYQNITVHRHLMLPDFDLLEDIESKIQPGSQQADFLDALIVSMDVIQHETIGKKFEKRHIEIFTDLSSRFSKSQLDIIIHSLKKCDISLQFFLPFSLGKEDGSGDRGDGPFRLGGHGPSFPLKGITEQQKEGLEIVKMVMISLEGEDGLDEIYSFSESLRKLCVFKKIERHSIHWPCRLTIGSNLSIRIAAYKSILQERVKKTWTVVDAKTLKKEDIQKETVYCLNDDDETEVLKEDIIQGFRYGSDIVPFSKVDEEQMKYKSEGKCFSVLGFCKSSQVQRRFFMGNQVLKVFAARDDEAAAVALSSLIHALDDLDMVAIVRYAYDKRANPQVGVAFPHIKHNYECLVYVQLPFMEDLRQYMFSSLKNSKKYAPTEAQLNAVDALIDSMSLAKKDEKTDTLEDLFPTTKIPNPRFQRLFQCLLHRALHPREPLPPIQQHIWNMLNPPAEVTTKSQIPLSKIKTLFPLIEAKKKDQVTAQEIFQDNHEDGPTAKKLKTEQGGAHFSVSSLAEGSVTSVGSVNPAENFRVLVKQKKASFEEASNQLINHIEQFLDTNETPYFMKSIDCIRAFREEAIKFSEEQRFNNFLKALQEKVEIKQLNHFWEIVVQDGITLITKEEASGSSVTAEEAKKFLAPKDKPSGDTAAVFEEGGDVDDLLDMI
Chain of Ku70cc;Ku80cc;pXLF (long X-KBM peptide) (P12956 1-544, chain 1 of 2): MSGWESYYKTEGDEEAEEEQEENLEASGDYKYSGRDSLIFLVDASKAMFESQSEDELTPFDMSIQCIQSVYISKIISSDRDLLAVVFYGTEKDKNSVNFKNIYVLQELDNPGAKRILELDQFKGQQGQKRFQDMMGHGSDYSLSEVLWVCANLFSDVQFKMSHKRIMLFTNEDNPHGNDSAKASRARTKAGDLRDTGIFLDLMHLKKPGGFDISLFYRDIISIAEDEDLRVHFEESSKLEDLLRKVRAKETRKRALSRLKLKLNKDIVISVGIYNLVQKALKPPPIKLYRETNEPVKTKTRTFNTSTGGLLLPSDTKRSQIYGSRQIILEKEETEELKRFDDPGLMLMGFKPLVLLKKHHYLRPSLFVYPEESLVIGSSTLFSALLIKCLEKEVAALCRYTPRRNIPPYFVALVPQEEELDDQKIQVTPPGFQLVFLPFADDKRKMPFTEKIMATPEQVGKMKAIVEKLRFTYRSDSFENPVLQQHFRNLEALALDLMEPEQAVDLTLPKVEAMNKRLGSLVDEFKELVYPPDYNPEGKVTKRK
Chain of Ku70cc;Ku80cc;pXLF (long X-KBM peptide) (P13010 1-551, chain 2 of 2): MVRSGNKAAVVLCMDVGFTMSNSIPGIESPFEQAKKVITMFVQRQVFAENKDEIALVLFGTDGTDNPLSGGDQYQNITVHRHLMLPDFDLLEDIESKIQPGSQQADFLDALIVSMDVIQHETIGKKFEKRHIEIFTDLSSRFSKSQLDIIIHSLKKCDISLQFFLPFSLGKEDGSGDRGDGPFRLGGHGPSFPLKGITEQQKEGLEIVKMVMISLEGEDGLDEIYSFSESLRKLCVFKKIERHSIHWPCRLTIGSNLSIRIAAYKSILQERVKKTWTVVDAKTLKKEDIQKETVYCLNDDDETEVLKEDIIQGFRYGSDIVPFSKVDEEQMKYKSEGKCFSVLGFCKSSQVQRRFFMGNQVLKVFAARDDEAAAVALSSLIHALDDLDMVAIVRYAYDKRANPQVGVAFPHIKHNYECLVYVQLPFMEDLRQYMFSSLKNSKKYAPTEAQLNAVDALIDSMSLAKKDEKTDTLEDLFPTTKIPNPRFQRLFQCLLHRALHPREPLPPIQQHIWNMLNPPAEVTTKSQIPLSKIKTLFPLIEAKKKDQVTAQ
Chain of Ku70cc;Ku80cc;pXLFs (short X-KBM peptide) (P12956 1-544, chain 1 of 2): as the sequence (P12956 1-544, chain 1 of 2) above
Chain of Ku70cc;Ku80cc;pXLFs (short X-KBM peptide) (P13010 1-551, chain 2 of 2): as the sequence (P13010 1-551, chain 2 of 2) above
Chain of Ku70cc;Ku80cc;pAPLF (A-KBM peptide) (P12956 1-544, chain 1 of 2): as the sequence (P12956 1-544, chain 1 of 2) above
Chain of Ku70cc;Ku80cc;pAPLF (A-KBM peptide) (P13010 1-551, chain 2 of 2): as the sequence (P13010 1-551, chain 2 of 2) above
Chain of KuFL (full length Ku70/Ku80) (P13010 whole entry): as the sequence (P13010 whole entry, chain 2 of 2) above
Chain of KuFL (full length Ku70/Ku80) (P12956 whole entry): as the sequence (P12956 whole entry, chain 1 of 2) above
Chain of Ku70 full length;Ku80 full length;XLF full length (P12956 whole entry, chain 1 of 3): as the sequence (P12956 whole entry, chain 1 of 2) above
Chain of Ku70 full length;Ku80 full length;XLF full length (P13010 whole entry, chain 2 of 3): as the sequence (P13010 whole entry, chain 2 of 2) above
Chain of Ku70 full length;Ku80 full length;XLF full length (Q9H9Q4 whole entry, chain 3 of 3): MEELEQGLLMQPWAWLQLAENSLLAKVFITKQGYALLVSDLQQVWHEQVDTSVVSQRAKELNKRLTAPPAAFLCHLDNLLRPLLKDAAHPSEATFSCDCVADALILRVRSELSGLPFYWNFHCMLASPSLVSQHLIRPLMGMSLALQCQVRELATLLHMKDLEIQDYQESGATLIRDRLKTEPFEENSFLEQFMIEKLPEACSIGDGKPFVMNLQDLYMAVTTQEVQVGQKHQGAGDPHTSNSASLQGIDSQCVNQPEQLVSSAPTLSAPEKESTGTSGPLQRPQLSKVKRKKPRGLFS

Turning to APLF: APTX and PNKP-like factor, in the data set with Ku80, the “Effect of Ku80 mutations at L68, Y74, I112 on interaction with APLF” value is listed as “greatly reduce or disrupt the interactions”. As for LQRPQLSKVKRKKPRGWFS [pXLF(LW)], the ΔH in data set [1] was -12.1 ± 2.0 kcal/M. Regarding “L115D XLF: XLF mutant unable to interact with XRCC4”, the “Recruitment to laser-irradiated sites, full-length XLF” value (“Recruitment to laser-irradiated sites” below) in [2] was “efficient recruitment”. For the same molecule, the “Effect of APLF knock-down on XLF recruitment” value in data set [2] (CFP-XLF, APLF knock-down) is recorded as “insensitive to APLF knock-down”. As for “F298G: XLF mutant in the extreme C-terminus”, the “Recruitment to laser-irradiated sites” value in [2] is on record as “important reduction of the recruitment”. On the same count and under the same terms, next, “G296W: XLF mutant in the extreme C-terminus”: “important reduction of the recruitment”; “S299E: XLF mutant in the extreme C-terminus”: “important reduction of the recruitment”.

As to “XLF L115D/L297E: XLF L115D/L297E double mutant”, the “Recruitment to laser-irradiated sites” value in data set [2] is “impaired”. Turning to `CC(C)C[C@H](NC(=O)CNC(=O)[C@H](CCCNC(=N)N)NC(=O)[C@@H]1CCCN1C(=O)[C@H](CCCCN)NC(=O)[C@H](CCCCN)NC(=O)[C@H](CCCNC(=N)N)NC(=O)[C@H](CCCCN)NC(=O)[C@@H](NC(=O)[C@H](CCCCN)NC(=O)[C@H](CO)NC(=O)[C@H](CC(C)C)NC(=O)[C@H](CCC(N)=O)NC(=O)[C@@H]1CCCN1C(=O)[C@H](CCCNC(=N)N)NC(=O)[C@H](CCC(N)=O)NC(=O)[C@@H](N)CC(C)C)C(C)C)C(=O)N[C@@H](Cc1ccccc1)C(=O)N[C@@H](CO)C(=O)O` [pXLF], the Interaction detected entry in the data set on Ku is recorded as “not detected”.

B1: hDNA (CN1/CN2 hairpin DNA) (structured_DNA)
DNA 1: CGCGCCCAGCTTTCCCAGCTAATAAACTAAAAAC
DNA 2: GTTTTTAGTTTATTGGGCGCG
B1: the binding result in data set [3], in data set [4] and in data set [5] was “binds” in each case.

B2: 48bp DNA nanolever (NLB48) (dsDNA)
DNA 1: TAGTCGTAAGCTGATATGGCTGATTAGTCGGAAGCATCGAACGCTGAT
DNA 2: ATCAGCGTTCGATGCTTCCGACTAATCAGCCATATCAGCTTACGACTA
Turning to B2, the binding result in [6] is “binds”.

B3: 50bp DNA (MM 50bp up/do) (dsDNA)
DNA 1: TAAATGCCAATGCTGCTGATACGTACTCGGACTGATTCGGAACTGTAACG
DNA 2: CGTTACAGTTCCGAATCAGTCCGAGTACGTATCAGCAGCATTGGCATTTA
Take B3: the binding result in [7] is reported as “binds”.

B4: DNA 18bp (CN3/CN4) (dsDNA)
DNA 1: GTTATCCGAGCGTGAGAC
DNA 2: GTCTCACGCTCGGATAAC
In data set [8], B4 came in with a Kd of 4.1 ± 0.7 nM.

For orientation: Kd means the concentration at which binding is half-saturated.
